From ChEMBL document CHEMBL5441381, “ASAP - In vitro antiviral effect” (2024) come the findings set out here.

In experiment [1] the test system is SARS-CoV-2. In words: (§1) Functional immunofluorescence assay to measure dose dependent changes in antiviral-drug inhibitory efficacy against hCoV-19/USA-WA1/2020 in HeLa-ACE2 cells which are seeded prior to drug treatment, then infected with hCoV-19/USA-WA1/2020. Cells are fixed with 10 % formaldehyde, washed with PBS, permeabilized with permeabilization buffer, then washed with wash buffer. The cells are incubated with nucleoprotein primary antibody IC7C7. Following primary staining, cells are washed with wash buffer and incubated in a solution of with Alexa fluor 488 and DAPI. Infected and uninfected cells are visualized and analyzed by Gen5 software. The assay has been performed by Icahn School of Medicine at Mount Sinai. The experiment is classed as organism-based, Homo sapiens.

The subject of experiment [2] is SARS-CoV-2. The experiment is described as §1, with “iPSC-Pneumocyte” for “HeLa-ACE2”, “to” for “to drug”. The experiment is classed as organism-based, Homo sapiens. The note with it: Severe acute respiratory syndrome coronavirus 2, Pneumocyte; for EC90: Baseline response 0 %, Maximum response 100 %.
The mark [3] stands for this setting: Severe acute respiratory syndrome coronavirus 2, HeLa-ACE2.

What is called EC50 is the concentration needed to bring the measured effect to its halfway point. In general, EC90 refers to the point of the concentration-response curve where the effect stands at 90%. Read a low EC90 as an effect from little substance. In turn, `CC(C)[C@@H](Nc1ncnc2[nH]c(-c3ccc4cncn4c3)cc12)c1ccc2c(c1)S(=O)(=O)CCC2` gave an EC50 in experiment [1] (setting [3]) of 7.12 µM. Besides, the EC90 in experiment [1] (Severe acute respiratory syndrome coronavirus 2, HeLa-ACE2, Baseline response 0 %, Hill slope -0.819, Maximum measured 92.609 %, Maximum response 100 %, Minimum measured 28.375 %, R squared 0.905) was greater than 20 µM.

With `CNCc1cc(-c2cc3c(N[C@@H](c4ccc5c(c4)S(=O)(=O)NCC5)C(C)C)ncnc3[nH]2)co1`, the figures for the EC50 in experiment [2] and in experiment [1] (setting [3]) were 30.7 µM and greater than 20 µM, respectively. In addition, the EC90 in experiment [2] (Hill slope -1.273, Maximum measured 102.14 %, Minimum measured 30.967 %, R squared 0.783) was greater than 50 µM; in experiment [1] (Severe acute respiratory syndrome coronavirus 2, HeLa-ACE2, Baseline response 0 %, Hill slope -0.236, Maximum measured 99.818 %, Maximum response 100 %, Minimum measured 81.688 %, R squared 0.12), greater than 20 µM.

Take `CC(C)(C)[C@H](Nc1ncnc2[nH]c(-c3cnn(CC(N)=O)c3)cc12)c1ccc2c(c1)OCCO2`: the EC50 in experiment [1] (setting [3]) was greater than 20 µM. Further, the EC90 in experiment [1] (Severe acute respiratory syndrome coronavirus 2, HeLa-ACE2, Baseline response 0 %, Hill slope -0.655, Maximum measured 108.484 %, Maximum response 100 %, Minimum measured 91.129 %, R squared 0.123) is greater than 20 µM.

As to `CC(C)[C@@H](Nc1ncnc2[nH]c(-c3cnn(C)n3)cc12)c1ccc2c(c1)OCCO2`, the EC50 is 13.3 µM in experiment [2], 5.33 µM in experiment [1] (setting [3]) and 6.65 µM in experiment [1] (hela-ace2). For the same compound, the EC90 in experiment [2] (EC90 CI (lower) 0.166 uM, EC90 CI (upper) 294.285 uM, Hill slope -3.414, Maximum measured 157.709 %, Minimum measured 4.934 %, R squared 0.471) is 25.3 µM; in experiment [1] (Severe acute respiratory syndrome coronavirus 2, HeLa-ACE2, Baseline response 0 %, Hill slope -0.7, Maximum measured 92.76 %, Maximum response 100 %, Minimum measured 27.109 %, R squared 0.91), greater than 20 µM; in experiment [1] (Severe acute respiratory syndrome coronavirus 2, HeLa-ACE2, Baseline response 0 %, Hill slope -0.882, Maximum measured 101.658 %, Maximum response 100 %, Minimum measured 24.481 %, R squared 0.934), greater than 20 µM.

In experiment [1] (setting [3]), `CC(C)[C@H](Nc1ncnc2[nH]c(-c3cnn(C)c3C#N)cc12)c1ccc2c(c1)NC(=O)CO2` displayed an EC50 of 1.33 µM. The same compound returned a 90% effect concentration (EC90) in experiment [1] (Severe acute respiratory syndrome coronavirus 2, HeLa-ACE2, Baseline response 0 %, Hill slope -0.558, Maximum measured 72.17 %, Maximum response 100 %, Minimum measured 6.652 %, R squared 0.72) greater than 20 µM.

For `CC(C)[C@H](Nc1ncnc2[nH]c(-c3cnn(C)c3C#N)cc12)c1ccc2c(n1)NC(=O)CO2`, a half-maximal effect in experiment [1] (setting [3]) (EC50) was put at 0.858 µM. In addition, the EC90 in experiment [1] (Severe acute respiratory syndrome coronavirus 2, HeLa-ACE2, Baseline response 0 %, Hill slope -0.619, Maximum measured 70.604 %, Maximum response 100 %, Minimum measured 3.388 %, R squared 0.805) was greater than 20 µM.

As to `CNC(=O)c1cc2c(N[C@@H](c3ccc4c(c3)S(=O)(=O)CCC4)C(C)C)ncnc2[nH]1`, the EC50 in experiment [1] (setting [3]) is greater than 20 µM. In addition, the EC90 in experiment [1] (Severe acute respiratory syndrome coronavirus 2, HeLa-ACE2, Maximum measured 104.869 %, Minimum measured 90.681 %) was greater than 20 µM.

Turning to `CC(C)[C@H](Nc1ncnc2[nH]c(-c3cnn(C)c3)cc12)c1ccc2c(c1)S(=O)(=O)CCC2`, the EC50 in experiment [1] (setting [3]) was greater than 20 µM. Also, in experiment [1] (Severe acute respiratory syndrome coronavirus 2, HeLa-ACE2, Baseline response 0 %, Hill slope -1.829, Maximum measured 111.115 %, Maximum response 100 %, Minimum measured 52.798 %, R squared 0.593), the EC90 is greater than 20 µM.

For the compound `CCNC(=O)c1cc2c(N[C@@H](c3ccc4c(c3)S(=O)(=O)CCC4)C(C)C)ncnc2[nH]1`, the EC50 in experiment [1] (setting [3]) is greater than 20 µM. In addition, the EC90 in experiment [1] (Severe acute respiratory syndrome coronavirus 2, HeLa-ACE2, Baseline response 0 %, Hill slope -4.495, Maximum measured 108.517 %, Maximum response 100 %, Minimum measured 90.612 %, R squared 0.096) is greater than 20 µM.

In experiment [1] (setting [3]), `CC(C)[C@@H](Nc1ncnc2[nH]c(-c3cnn(CC(N)=O)c3)cc12)c1ccc2c(c1)S(=O)(=O)CCC2` displayed a 50% effective concentration (EC50) greater than 20 µM. This compound also displayed an EC90 in experiment [1] (Severe acute respiratory syndrome coronavirus 2, HeLa-ACE2, Maximum measured 127.59 %, Minimum measured 107.301 %) greater than 20 µM.

In experiment [1] (setting [3]), `CC(C)[C@@H](Nc1ncnc2[nH]cc(C(=O)NC3CC3)c12)c1ccc2c(c1)S(=O)(=O)CCC2` displayed an EC50 of 14.4 µM. This compound also yielded an EC90 in experiment [1] (Severe acute respiratory syndrome coronavirus 2, HeLa-ACE2, Baseline response 0 %, Hill slope -1.207, Maximum measured 103.36 %, Maximum response 100 %, Minimum measured 37.723 %, R squared 0.64) greater than 20 µM.

Take `CNC(=O)c1cccc(-c2cc3c(N[C@@H](c4ccc5c(c4)S(=O)(=O)CCC5)C(C)C)ncnc3[nH]2)c1`: the EC50 in experiment [1] (setting [3]) is greater than 20 µM. The EC90 in experiment [1] (Severe acute respiratory syndrome coronavirus 2, HeLa-ACE2, Baseline response 0 %, Hill slope -1.505, Maximum measured 108.746 %, Maximum response 100 %, Minimum measured 56.34 %, R squared 0.642) was greater than 20 µM.

As to `CC(C)[C@@H](Nc1ncnc2[nH]ccc12)c1ccc2c(c1)S(=O)(=O)CCO2`, the EC50 in experiment [1] (setting [3]) is greater than 20 µM. Further, in experiment [1] (Severe acute respiratory syndrome coronavirus 2, HeLa-ACE2, Baseline response 0 %, Hill slope -0.245, Maximum measured 99.283 %, Maximum response 100 %, Minimum measured 83.757 %, R squared 0.186), the EC90 is greater than 20 µM.

Turning to `CC(C)[C@@H](Nc1ncnc2[nH]c(-c3cncc(S(C)(=O)=O)c3)cc12)c1ccc2c(c1)S(=O)(=O)CCC2`, in experiment [1] (setting [3]), the EC50 was greater than 20 µM. Further, the EC90 in experiment [1] (Severe acute respiratory syndrome coronavirus 2, HeLa-ACE2, Maximum measured 119.816 %, Minimum measured 96.629 %) is greater than 20 µM.
